Assay results: US10085450B2, “Tetrazolinone compound and use thereof” (SUMITOMO CHEMICAL COMPANY, LIMITED, priority 2013, dated 2018)

Key:
[1] = test system: diamondback moth (Plutella xylostella); test: Test Example 20: diamondback moth larvae mortality on sprayed cabbage; assay type: in vivo; conditions: 120 h
Method: Cabbage (cultivar: GREEN BALL) was sowed and grown in a polyethylene cup until the third to fourth true leaf was developed. The test chemical solution was sprayed over the cabbage at a rate of 20 mL per cup. After drying the chemical solution, the cabbage cut from the base was disposed in a polyethylene cup (5.5 cm in diameter) with a filter paper laid on the bottom. Five (5) heads of third-instar larvae of diamondback moth (Plutella xylostella) were released and then a lid was put on the cup. After storage at 25° C. for 5 days, the number of the surviving insects was counted and mortality was calculated by the following equation.

[2] = test system: rice blast fungus (Magnaporthe grisea); assay type: in vivo; conditions: 500 ppm water dilution sprayed on rice (NIHONBARE); contact with infected rice seedling for 6 days
[3] = test system: tomato late blight fungus (Phytophthora infestans); assay type: in vivo; conditions: 500 ppm water dilution sprayed on tomato (PATIO) seedling; spores inoculated after air-drying
[4] = test system: common house mosquito (Culex pipiens pallens); test: whole plant or invertebrate; conditions: 24 h
Method: The test chemical solution (0.7 mL) was added to 100 mL of deionized water to thereby adjust the concentration of the active ingredient to 3.5 ppm. Twenty (20) heads of last instar larvae of common house mosquito (Culex pipiens pallens) were released in the solution. After 1 day, the number of the dead insects was counted.
Mortality was determined by the following equation. Mortality (%)=(number of dead insects/number of tested insects)×100

Row | Structure (SMILES) | mortality at 500 ppm [1] | mortality at 3.5 ppm [4] | also measured
1 | Cc1cccc(-n2nnn(C)c2=O)c1COc1cc(-c2ccc(Cl)cc2)nn1C [present compound 4] | ≥ 80% | – | –
2 | Cc1cccc(-n2nnn(C)c2=O)c1COc1c(C)c(-c2ccccc2)nn1C [present compound 8] | – | – | lesion areas on the treated plant with respect to the lesion area on the non-treated plant [2]: ≤ 30%; area of lesion spots on the treated plant relative to that on an untreated plant [3]: ≤ 30%
3 | Cc1cccc(-n2nnn(C)c2=O)c1COc1csc(-c2ccccc2)n1 [present compound 10] | ≥ 80% | – | –
4 | Cc1cccc(-n2nnn(C)c2=O)c1COc1ccc(-c2ccc(Cl)cc2)s1 [present compound 15, 1-{2-[5-(4-chlorophenyl)thiophen-2-yloxymethyl]-3-methylphenyl}-4-methyl-1,4-dihydrotetrazol-5-one] | – | 95% | –
5 | Cc1cccc(-n2nnn(C)c2=O)c1COc1nn(C)c(-c2ccc(Cl)cc2)c1C [present compound 29, 1-(2-{[1,4-dimethyl-5-(4-chlorophenyl)-1H-pyrazol-3-yloxy]methyl}-3-methylphenyl)-4-methyl-1,4-dihydrotetrazol-5-one] | – | 95% | –
